Measured values from the supplement of paper PMC13380429.

Columns and labels:
Conditions in all cases: 72 h
U2OS [1] = assay: drug sensitivity score (DSS) for viability; higher = more toxic; extreme values may be limits of the assay
Vero E6 [2] = assay: as above
Caco-2 [3] = assay: as above
HepG2 [4] = assay: as above
Calu-3 [5] = assay: as above
U2OS [6] = assay: cell viability relative to DMSO; higher = less toxic
Vero E6 [7] = assay: as above
Caco-2 [8] = assay: as above
HepG2 [9] = assay: as above
Calu-3 [10] = assay: as above
U2OS [11] = assay: relative viability EC50 (midpoint between 100% and the lowest measured viability); higher = less toxic
Vero E6 [12] = assay: as above
Caco-2 [13] = assay: as above
HepG2 [14] = assay: as above
Calu-3 [15] = assay: as above

SMILES	drug sensitivity score (U2OS [1])	drug sensitivity score (Vero E6 [2])	drug sensitivity score (Caco-2 [3])	drug sensitivity score (HepG2 [4])	drug sensitivity score (Calu-3 [5])	cell viability (U2OS [6]; 1 nM) [%]	cell viability (U2OS [6]; 10 nM) [%]	cell viability (U2OS [6]; 100 nM) [%]	cell viability (U2OS [6]; 1000 nM) [%]	cell viability (U2OS [6]; 10000 nM) [%]	cell viability (Vero E6 [7]; 1 nM) [%]	cell viability (Vero E6 [7]; 10 nM) [%]	cell viability (Vero E6 [7]; 100 nM) [%]	cell viability (Vero E6 [7]; 1000 nM) [%]	cell viability (Vero E6 [7]; 10000 nM) [%]	cell viability (Caco-2 [8]; 1 nM) [%]	cell viability (Caco-2 [8]; 10 nM) [%]	cell viability (Caco-2 [8]; 100 nM) [%]	cell viability (Caco-2 [8]; 1000 nM) [%]	cell viability (Caco-2 [8]; 10000 nM) [%]	cell viability (HepG2 [9]; 1 nM) [%]	cell viability (HepG2 [9]; 10 nM) [%]	cell viability (HepG2 [9]; 100 nM) [%]	cell viability (HepG2 [9]; 1000 nM) [%]	cell viability (HepG2 [9]; 10000 nM) [%]	cell viability (Calu-3 [10]; 1 nM) [%]	cell viability (Calu-3 [10]; 10 nM) [%]	cell viability (Calu-3 [10]; 100 nM) [%]	cell viability (Calu-3 [10]; 1000 nM) [%]	cell viability (Calu-3 [10]; 10000 nM) [%]	relative viability EC50 (U2OS [11]) [µM]	relative viability EC50 (Vero E6 [12]) [µM]	relative viability EC50 (Caco-2 [13]) [µM]	relative viability EC50 (HepG2 [14]) [µM]	relative viability EC50 (Calu-3 [15]) [µM]
CCC(=O)c1cc(-c2ccc(Cl)cc2)n(-c2ccc(S(N)(=O)=O)cc2)c1C	0	0	0	0	0	103	99.6	99.3	96.4	102	103	104	98.4	101	91.2	101	91.1	107	96.5	89.7	105	102	102	122	91.5	96.6	97.4	103	102	103	> 10	> 10	> 10	> 10	> 10
CCN(CC)CCNC(=O)c1cc(Br)c(N)cc1OC [bromopride]	0	0	0	0	0	101	99.1	105	99.4	101	95.9	100	92.9	99.8	104	89.7	96.1	97.4	94.6	102	94.6	102	99	105	101	102	99	95.8	104	111	> 10	> 10	> 10	> 10	> 10
CO[C@@H]1[C@H](O)[C@@H](CO)O[C@H]1n1cnc2c(NC3CCCCC3)ncnc21 [SDZ-WAG-994]	0	0	0	0	0	93.6	100	97	103	108	99.5	94.7	97.1	95.2	109	84.7	95.4	90	103	99.5	88	93.4	104	93	101	88.5	89.5	83.3	88.3	109	> 10	> 10	> 10	> 10	> 10
CC(Oc1c(Cl)cccc1Cl)C1=NCCN1 (stereo not given) [lofexidine]	0	0	0	0	0	103	106	100	100	99.6	101	101	95.7	103	103	100	106	101	93.8	95.6	90.7	105	104	90.7	100	99.3	108	87.6	103	94.6	> 10	> 10	> 10	> 10	> 10
CC(=O)[C@H]1CC[C@H]2[C@@H]3CCC4=CC(=O)CC[C@]4(C)[C@H]3CC[C@]12C [progesterone]	0	0	1.3	0	0	100	98	101	100	96.8	92	108	91.3	96.8	110	97.4	98.8	98.4	87.2	82.9	102	99.9	102	96.4	95.6	95	98.4	87.2	94.5	92	> 10	> 10	> 10	> 10	> 10
Cc1noc(NS(=O)(=O)c2cccc3c(N(C)C)cccc23)c1C	0	0	0	0	0	93.5	101	100	100	103	103	92.8	98.3	90.5	103	80.6	103	96.7	91.7	105	99.6	96	108	94.5	110	97.7	104	95.4	97.3	103	> 10	> 10	> 10	> 10	> 10
OCC(CO)N[C@H]1C[C@](O)(CO)[C@@H](O)[C@H](O)[C@H]1O [voglibose]	0	0	0	0	0	103	100	100	98.2	97.5	97	95.1	94.3	93.8	104	94.4	102	93.7	98	106	98.2	108	102	100	111	97.8	106	98.4	101	108	> 10	> 10	> 10	> 10	> 10
N[C@@]1(C(=O)O)CC[C@H]2[C@H](C(=O)O)[C@H]21 [eglumetad]	0	0	0	0	0	101	101	97.3	96.6	96	99	99	94.9	100	96.6	107	104	93.8	102	97.2	113	92.5	102	97.6	116	95.7	102	97.3	93.2	104	> 10	> 10	> 10	> 10	> 10
O=C(O)c1ccc(CN2CCC(CN[C@@H]3C[C@H]3c3ccccc3)CC2)cc1	0	0	0	0	0	95.9	96.8	95.8	98.3	96	100	103	99.2	90.9	95.2	101	108	94	105	102	105	93.8	104	92.5	92	89.3	101	94.7	102	103	> 10	> 10	> 10	> 10	> 10
COc1ccc2c3c([nH]c2c1)[C@H](CC(C)C)N1C(=O)[C@H](CCC(=O)OC(C)(C)C)NC(=O)[C@@H]1C3 [Ko143]	0	0	0	0	0	98.7	101	98.1	100	94.1	99.3	96.7	101	93	97.7	95.7	99.6	91.8	91.4	93	101	86.3	92.5	85.6	97.9	89.8	100	97.7	98.6	97.9	> 10	> 10	> 10	> 10	> 10
C[C@@]1(O)[C@H](O)[C@@H](CO)O[C@H]1n1cnc2c(NC3CCCC3)nc(Cl)nc21 [2'-MeCCPA]	0	0	0	0	0	96.9	100	96.8	99.6	100	105	98.7	100	98.9	102	95.9	100	102	105	103	95.6	95.5	101	97.7	96.8	93.9	98	96.5	100	91.4	> 10	> 10	> 10	> 10	> 10
O=C(NC(=O)c1c(F)cccc1F)Nc1cc(Cl)c(OC(F)(F)C(F)C(F)(F)F)cc1Cl (stereo not given) [lufenuron]	0	0	0	0	0	100	95.1	96.7	98.4	99.7	99.2	108	98.3	110	100	100	95.1	93.8	96.8	95	98.6	94.3	109	101	101	95.4	98.9	92.1	83.2	95.3	> 10	> 10	> 10	> 10	> 10
